In patent US9717737B2, “Vacuolin-1 as an inhibitor of autophagy and endosomal trafficking and the use thereof for inhibiting tumor progression” (The University of Hong Kong, priority 2014, dated 2017):

System: RFP-GFP-LC3 expressing HeLa cells
Test: RFP-GFP-LC3 (tfLC3) fluorescence image-based autophagy assay
Assay type: cell-based
Excerpt: Prompted by the fact that many available autophagy chemical modulators lack either potency or specificity (Kimura et al., 2013), a fluorescence image-based assay was set up to screen small molecules affecting autophagy. HeLa cells, an autophagy competent cell line, were infected with lentiviruses carrying expression cassettes that encode RFP-GFP-LC3 (tfLC3) (Kimura et al., 2007). Thus, the LC3-II positive autophagosomes are labeled with both GFP and RFP signals shown as yellow puncta, and after fusion with lysosomes, autolysosomes are shown as red only puncta because GFP loses its fluorescence in acidic pH.
Next, a panel of small chemicals that are commercially available and have been previously shown to affect vesicle trafficking or organelle morphology were selected and screened for their effects on autophagy regulation in tfLC3 expressing HeLa cells (data not shown).

SMILES | LC3 puncta (yellow = autophagosomes, red only = autolysosomes)
CCN(CC)CCCC(C)Nc1ccnc2cc(Cl)ccc12 (centres unmarked) [CQ, Chloroquine] | markedly induced the accumulation of yellow puncta only
CO/C1=C\C(C)=C\[C@@H](C)[C@@H](O)[C@@H](C)C/C(C)=C/C=C/[C@H](OC)[C@@H]([C@@H](C)[C@@H](O)[C@H](C)[C@@]2(O)C[C@@H](O)[C@H](C)[C@@H](C(C)C)O2)OC1=O [bafilomycin, Bafilomycin A1] | markedly induced the accumulation of yellow puncta only
